Earlier results in patent publication US6569457B2, “Enteric coated pharmaceutical tablet and method of manufacturing” (priority 1998, dated 2003).

O=c1[nH]cnc2c1ncn2C1CCC(CO)O1 (stereo not shown) [ddl, 2′,3′-dideoxyinosine]
degradation at acidic pH: degrades rapidly
